The structures appear in SMILES notation.

Data on 15 molecules can be found in patent US20060205677A1 (XenoPort, Inc., priority 2005, published 2006).

The test system of one data set is PC3 cells. Nature of the data set: In vitro cytotoxicity (Alamar blue growth inhibition), PC3. The class given is cell-based, human. The conditions noted are these: PC3, 48 h. The procedure:
(§1) The effect of experimental compounds on cancer cell growth and viability was measured in a panel of human cancer cells grown in vitro. All cancer cell lines were obtained from the American […]. Cells were maintained in the following media: TUR, H69AR, Calu-6, ME180, and PC3 cells were grown in RPMI medium containing 4.5 g/L glucose, 10% FBS, 4 mM L-glutamine, and 1 mM sodium pyruvate); and HT29 cells were grown in DMEM with 4.5 g/L glucose, 10% FBS, and 6 mM L-glutamine. All cells were grown at 37° C. in 5% CO2 and passaged bi-weekly.
(§2) For cytoxicity studies, cells were seeded into 96-well clear-bottom microtiter plates at the following densities: TUR (7,500 cells/well), HT29 (5,000 cells/well), H69AR (10,000 cells/well), Calu-6 (15,000 cells/well), and ME180 (2,500 cells/well). Cells were maintained at 37° C. with 5% CO2 for 24 hours prior to addition of various experimental compounds. Each condition was measured in triplicate. For compounds dissolved in DMSO, the final DMSO concentration in each well and in the non-drug treated control cells was constant and below 1% in all studies. The number of viable cells was determined after 24, 48, and 72 hours using Alamar blue fluorescence. Briefly, Alamar blue (10 mM) was added to each well for 4 hours, and the number of viable cells estimated by measuring the fluorescence of reduced Alamar blue (530 nm excitation, 590 nm emission). To correct for background fluorescence, cells were treated with 100% DMSO to eliminate all viable cells. The effect of drug on cell growth was determined by calculating the fraction of live cells treated with drug compared to untreated cells: (F1drug treated−F1DMSO killed)/(F1untreated−F1DMSO killed).
(In general: Alamar Blue is a resazurin reagent that responds to reducing activity.)

The next data set relates to H69AR cells. As to the kind of experiment: In vitro cytotoxicity (Alamar blue growth inhibition), H69AR. The data set is classed as cell-based, human. Particulars: 48 h. The procedure: as §1, §2
The subject of a further data set is Calu-6 cells. As to the kind of experiment: In vitro cytotoxicity (Alamar blue growth inhibition), Calu-6. The class given is cell-based, human. The conditions noted are these: Calu-6, 48 h. The procedure: as §1, §2
The subject of a further data set is TUR cells. Nature of the data set: In vitro cytotoxicity (Alamar blue growth inhibition), TUR. The data set is classed as cell-based, human. The conditions noted are these: 48 h. The procedure:
as §1, §2

For data set [1], the system named is HT29 cells. Nature of the data set: In vitro cytotoxicity (Alamar blue growth inhibition), HT29. The class given is cell-based, human. The conditions noted are these: HT29, 48 h. The procedure: as §1, §2
Another data set relates to ME180 cells. As to the kind of experiment: In vitro cytotoxicity (Alamar blue growth inhibition), ME180. Particulars: ME180, 48 h. The class given is cell-based, human. The procedure:
as §1, §2

The next data set relates to HT29 (Colon) xenograft. Nature of the data set: In vivo tumor growth inhibition, mouse xenograft, HT29. Set-up: species or system nude athymic CD-1 mice. Particulars: IP. The procedure:
Tumor xenograft studies were performed using nude athymic CD-1 mice (Charles River Laboratories). Human cancer cells (5×10^6 PC3, 5×10^6 HT29, 10^7 Calu-6, and 5×10^6 ME180) were implanted in the hind flank of nude mice. Tumor growth was measured using calipers and tumor volume calculated using the formula: (width^2×(length/2)). Tumor volume was measured 3 days per week. Animal weight was measured 3 days per week to assess compound toxicity.
Compounds were tested for in vivo tumor growth inhibition as follows. Animals bearing tumors 100-200 mg were sorted into groups (5-8 animals) with similar average tumor mass per group. Drug doses were administered by intraperitoneal (IP) injection (0.5 mL). Test compounds were dissolved in phosphate buffered saline (PBS) and concentration adjusted for animal weight. Actual drug concentrations in formulated doses were verified by quantitative nitrogen detection. Animals were dosed every 7 days for 21 days in most studies. In several studies, animals were dosed twice weekly (days 0, 4, 7, 10, 14, etc.). Tumor volume and animal weight were measured on days 0, 2, 4, 7, 9, 11, 14, 16, 18, 21, 23, 25, and 28. At the end of the study, animal blood was removed for analysis of liver and kidney function (BUN, creatine, AST and ALT; analytical measurements performed by Quality Clinical Labs). Tumor volume at the end of the study was calculated as a percentage of the tumor volume on day 0. The percent tumor growth inhibition was obtained from the ratio of the percentage tumor volume increase in drug treated animals to the percentage tumor volume increase in saline treated animals.

The subject of data set [2] is HT29 cells. Nature of the data set: Effect of sugar transport inhibitor (phloridzen) on in vitro cytotoxicity. The data set is classed as cell-based, human. The conditions noted are these: 48 hours. The procedure: as §1, §2
A short description of data set [3]: Determination of maximum tolerated dose (MTD). The conditions noted are these: ratio of maximum tolerated dose to minimally effective dose. The class given is in vivo, nude mice. The procedure: To determine the maximum tolerated doses for compound (54) relative to clinically used platinum anticancer agents, nude mice were injected with increasing drug doses (0.5 mL, intraperitoneally) on days 0, 7, and 14. […] The therapeutic index of a given drug is defined as the ratio of the maximum tolerated dose to the minimally effective dose.

Broadly, the GI50 is the concentration that inhibits growth by half. On to `O=C(CCC1C(=O)[O][Pt]2([NH]C3CCCCC3[NH]2)[O]C1=O)NC1OC(CO)C(O)C(O)C1O` [(42), [1R,2R-Cyclohexanediamine-N,N′][{2-(β-D-Galactopyranos-1-ylamido)ethyl}propanedioato(2-)-O,O′]Platinum (II)], for which the concentration for 50% growth inhibition (GI50) with PC3 cells came to 45 µM; with H69AR cells, 188 µM; in the data set on Calu-6 cells, 131 µM; in the data set on TUR cells, 22 µM; with HT29 cells [1] it was 860 µM; with ME180 cells, 4 µM.
For `O=C(CCC1C(=O)[O][Pt]2([NH]C3CCCCC3[NH]2)[O]C1=O)NC1OC(CO)C(O)C(O)C1O` [(45), [1R,2R-Cyclohexanediamine-N,N′][{2-(β-D-Mannopyranos-1-ylamido)ethyl}propanedioato(2-)-O,O′]Platinum (II)], the results for the GI50 in the data set with H69AR cells and in the data set on TUR cells were 84 µM and 28 µM, respectively.
For the molecule `O=C(CCCC1C(=O)[O][Pt]2([NH]C3CCCCC3[NH]2)[O]C1=O)NC1OC(CO)C(O)C(O)C1O` [(51), [1R,2R-Cyclohexanediamine-N,N′][{3-(β-D-Galactopyranos-1-ylamido)propyl}propanedioato(2-)-O,O′]Platinum (II)], the GI50 with PC3 cells turned out to be 84 µM; in the data set on H69AR cells it was 286 µM; with Calu-6 cells, 255 µM; in the data set on TUR cells, 37 µM; in the data set with HT29 cells [1], 374 µM; with ME180 cells it was 5 µM.
As to `N.N.O=C(CCCC1C(=O)[O][Pt][O]C1=O)NCC1OC(O)C(O)C(O)C1O` [(60), [Diammine][{3-(α,β-D-Galactopyranos-6-ylamido)propyl}propanedioato(2-)-O,O′]Platinum (II)], the results for the concentration for 50% growth inhibition (GI50) with H69AR cells and with TUR cells were 79 µM and 117 µM, respectively.
With `O=C(CCCC1C(=O)[O][Pt]2([NH]C3CCCCC3[NH]2)[O]C1=O)NCC1OC(O)C(O)C(O)C1O` [(66), [1R,2R-Cyclohexanediamine-N,N′][{3-(α,β-D-Glucopyranos-6-ylamido)propyl}propanedioato(2-)-O,O′]Platinum (II)], the GI50 came to 102 µM with H69AR cells; 163 µM in the data set on Calu-6 cells; 15 µM in the data set on TUR cells; 222 µM in the data set on HT29 cells [1]; 7 µM with ME180 cells.
On to `COC1OC(CNC(=O)CCCC2C(=O)[O][Pt]3([NH]C4CCCCC4[NH]3)[O]C2=O)C(O)C(O)C1O` [(67), [1R, 2R-Cyclohexanediamine-N,N′][{3-(Methyl-α-D-Glucopyranos-6-ylamido)propyl}propanedioato(2-)-O,O′]Platinum (II)], for which the GI50 turned out to be 185 µM in the data set on H69AR cells; 68 µM with Calu-6 cells; 21 µM in the data set on TUR cells; 234 µM in the data set with HT29 cells [1]; 5 µM in the data set with ME180 cells.
Consider `O=C1[O][Pt]2([NH]C3CCCCC3[NH]2)[O]C(=O)C1CCNC(=O)C1OC(O)C(O)C(O)C1O` [(74), [1R,2R-Cyclohexanediamine-N,N′][{2-(α,β-D-Glucuron-6-yl-amido)ethyl}propanedioato(2-)-O,O′]Platinum (II)], for which the GI50 with H69AR cells and with TUR cells was 53 µM throughout.
As to `O=C1[O][Pt]2([NH]C3CCCCC3[NH]2)[O]C(=O)C1CCNC(=O)C1OC(O)C(O)C(O)C1O` [(77), [1R, 2R-Cyclohexanediamine-N,N′][{2-(α,β-D-Galacturon-6-yl-amido)ethyl}propanedioato(2-)-O,O′]Platinum (II)], the 50% growth inhibitory concentration (GI50) in the data set on H69AR cells and in the data set with TUR cells was 38 µM throughout.
Regarding `COC1OC(C(=O)NCCC2C(=O)[O][Pt]3([NH]C4CCCCC4[NH]3)[O]C2=O)C(O)C(O)C1O` [(78), [1R,2R-Cyclohexanediamine-N,N′][{2-(Methyl-β-D-Glucuron-6-yl-amido)ethyl}propanedioato(2-)-O,O′]Platinum (II)], the results for the GI50 in the data set with H69AR cells, with TUR cells and in the data set with HT29 cells [1] were 76 µM, 15 µM and 103 µM, respectively.
On to `N.N.O=C(CCCC1C(=O)[O][Pt][O]C1=O)NC1C(O)OC(CO)C(O)C1O` [(82), [Diammine][{3-(α,β-D-Glucopyranos-2-yl-amido)propyl}propanedioato(2-)-O,O′]Platinum (II)], for which the GI50 with PC3 cells came out at 133 µM; with H69AR cells it was 112 µM; with Calu-6 cells it was 300 µM; in the data set with TUR cells, 142 µM; with HT29 cells [1] it was 800 µM; in the data set with ME180 cells, 11 µM.
Regarding `O=C1[O][Pt]2([NH]C3CCCCC3[NH]2)[O]C(=O)C1CCCC1OC(CO)C(O)C(O)C1O` [(83), [1R, 2R-Cyclohexanediamine-N,N′][{3-(α,β-D-Mannopyranos-1-yl)propyl}propanedioato(2-)-O,O′]Platinum (II)], the GI50 was 100 µM in the data set with PC3 cells; 163 µM with H69AR cells; 155 µM in the data set with Calu-6 cells; 41 µM in the data set with TUR cells; 117 µM in the data set on HT29 cells [1]; 10 µM with ME180 cells.
As to `NC1CCCCC1N.O=C1[O][Pt][O]C(=O)C1CCC1OC(CO)C(O)C(O)C1O` [(88), [1R,2R-Cyclohexanediamine-N,N′][{2-(α,β-D-Glucopyranos-1-yl)ethyl}propanedioato(2-)-O,O′]Platinum (II)], the GI50 in the data set with PC3 cells was determined as 112 µM; in the data set on H69AR cells, 98 µM; in the data set on Calu-6 cells it was 260 µM; with TUR cells it was 31 µM; with HT29 cells [1] it was 226 µM; in the data set on ME180 cells, 13 µM.
On to `O=C1[O][Pt]2([NH]C3CCCCC3[NH]2)[O]C(=O)C1CCC1OC(CO)C(O)C(O)C1O` (stereo not shown) [(93)], for which the GI50 in the data set with PC3 cells came out at 69 µM; with H69AR cells it was 78 µM; in the data set with Calu-6 cells, 139 µM; with TUR cells it was 20 µM; with HT29 cells [1] it was 178 µM; in the data set on ME180 cells, 7 µM.
Regarding `N.N.[Cl][Pt][Cl]` [Cisplatin, reference compound], the GI50 in the data set on PC3 cells came out at 31 µM; with H69AR cells, 4 µM; in the data set with Calu-6 cells it was 149 µM; in the data set on TUR cells it was 10 µM; in the data set with HT29 cells [1], 30 µM; with HT29 cells [2] (HT29, 0 mM phloridzen, read-out: GI50 of Uptake in HT29 Cells, 0 mM Phoridzen), 261 µM. Also, the GI50 in the data set on HT29 cells [2] (HT29, 0.2 mM phloridzen, read-out: GI50 of Uptake in HT29 Cells, 0.2 mM Phoridzen) stood at 194 µM; with HT29 cells [2] (HT29, 0.5 mM phloridzen, read-out: GI50 of Uptake in HT29 Cells, 0.5 mM Phoridzen), 192 µM; in the data set with HT29 cells [2] (HT29, 1.0 mM phloridzen, read-out: GI50 of Uptake in HT29 Cells, 1.0 mM Phoridzen) it was 254 µM; in the data set on ME180 cells, 1 µM. Also, in the data set with HT29 (Colon) xenograft (2 mg/kg), the “Percent Tumor Growth Inhibition HT29 (Colon)” value is on record as 69%.
For the molecule `O=C1[O][Pt]2([NH][C@@H]3CCCC[C@H]3[NH]2)[O]C1=O` [Oxaliplatin, oxaliplatin, reference compound], the “Therapeutic Index MTD/Min Eff” value in data set [3] is on record as 2.0. The GI50 in the data set on PC3 cells is 113 µM; in the data set with H69AR cells, 60 µM; with Calu-6 cells, 52 µM; in the data set with TUR cells, 42 µM; in the data set with HT29 cells [1], 133 µM; in the data set with ME180 cells it was 28 µM. In the data set on HT29 (Colon) xenograft (5 mg/kg), the “Percent Tumor Growth Inhibition HT29 (Colon)” value is given as 40%.
